Patent US10800732B2, “Substituted malonamides and their use as antibacterial drugs” (National Taiwan University, priority 2015, dated 2020)
Converted amounts (≈) assume the structure as drawn. “And” between values parts separate entries of the source, which are not always exact repeats. Equal values may be shown once. Read-outs that look alike come from different tables or passages of the source.

Experiments:
[1] = test system: clinical isolated VISA strain; assay: MIC, VISA; assay type: cell-based, vancomycin-intermediate Staphylococcus aureus; conditions: VISA, clinical isolate
Clinical isolated MRSAs = assay: MIC90, one hundred clinical isolated MRSA strains; assay type: cell-based, methicillin-resistant Staphylococcus aureus; conditions: one hundred clinical isolated MRSA from NTUH, concentration that inhibits 90% of strains tested
[2] = test system: MSSA ATCC 29213 or MRSA ATCC 33592; assay: Survival of MSSA- or MRSA-infected C. elegans; assay type: in vivo, Caenorhabditis elegans; conditions: 2- to 8-folds of MIC in S-medium, versus DMSO control
Experimental: (§1) FIG. 2. SC5005 protects C. elegans from S. aureus infection. Effect of SC78 and SC5005 on the survival of MSSA- or MRSA-infected C. elegans was assessed. The glp-4(bn2) C. elegans were fed on E. coli (OP50), MSSA (ATCC 29213) or MRSA (ATCC 33592) followed by exposing to SC78 or SC5005 at concentrations of 2-, 4-, 8-folds of respective MIC in S-medium. The survival of worms was monitored daily till the end of the study. The survival of animals fed with E. coli (OP50) and receiving DMSO only was served as a control to show the normal life-span of C. elegans.
Caenorhabditis elegans has been broadly used as a model host for the studies of human infectious diseases, including infections caused by S. aureus. To investigate whether SC78 and SC5005 can suppress the infection of S. aureus in C. elegans, worms were infected with MSSA ATCC 29213 or MRSA ATCC 33592 followed by exposing to individual drugs at concentrations of 2- to 8-folds of respective MIC in S-medium. Control groups were treated with DMSO at concentration equal to that of drug treated groups (final concentration, 0.1%).

S. aureus NCTC 8325 [3] = assay type: cell-based, Staphylococcus aureus; conditions: 200-day exposure to sub-lethal concentrations
[4] = test system: S. epidermidis ATCC 12228; assay: MIC, S. epidermidis ATCC 12228; assay type: cell-based; conditions: S. epidermidis ATCC 12228
[5] = test system: Enterococcus faecium ATCC 35667; assay: MIC, Enterococcus faecium ATCC 35667; assay type: cell-based
[6] = test system: Streptococcus pyogenes ATCC 19615; assay: MIC, Streptococcus pyogenes; assay type: cell-based
HEK-293 = assay: Antiproliferative activity, HEK-293; assay type: cell-based, human; conditions: for IC50: HEK-293, antiproliferative
Experimental: (§2) In addition to the antibacterial activities, the cytotoxic effects of these malonate derivatives on human cancer cell lines were also assessed.

[7] = test system: S. lugdunesis (NTUH isolate); assay: MIC, S. lugdunesis; assay type: cell-based
S. aureus ATCC 12598 = assay: MIC, S. aureus ATCC 12598; assay type: cell-based, Staphylococcus aureus
S. hominis (ATCC 27844) = assay: MIC, S. hominis; assay type: cell-based
[8] = test system: Enterococcus faecium ATCC 19434; assay: MIC, Enterococcus faecium ATCC 19434; assay type: cell-based
[9] = test system: S. intermedius (ATCC 29663); assay: MIC, S. intermedius; assay type: cell-based
HT-29 = assay: Antiproliferative activity, HT-29; assay type: cell-based, human; conditions: for IC50: HT-29, antiproliferative
Experimental: as §2

S. aureus NCTC 8325 [10] = assay: MIC, S. aureus NCTC 8325 (CLSI broth microdilution / agar dilution); assay type: cell-based, Staphylococcus aureus
C. elegans = assay: Toxic effects on E. coli (OP50)-fed C. elegans; assay type: in vivo, Caenorhabditis elegans; conditions: escalating doses in S-medium
Experimental: as §1
Meanwhile, the toxic effects of these agents on C. elegans were also assessed. E. coli (OP50)-fed worms were exposed to escalating doses of SC78 and SC5005 in S-medium followed by monitoring of their survival daily.

[11] = test system: S. haemolyticus (ATCC 29970); assay: MIC, S. haemolyticus; assay type: cell-based
[12] = test system: S. epidermidis ATCC 35984; assay: MIC, S. epidermidis ATCC 35984; assay type: cell-based
[13] = test system: Bacillus cereus ATCC 11778; assay: MIC, Bacillus cereus; assay type: cell-based
K-562 = assay: Antiproliferative activity, K-562; assay type: cell-based, human; conditions: for IC50: K-562, antiproliferative
Experimental: as §2

[14] = test system: Enterococcus faecalis ATCC 19433; assay: MIC, Enterococcus faecalis; assay type: cell-based
VR-E. faecium = assay: MIC, VR-E. faecium; assay type: cell-based, vancomycin resistant Enterococcus faecium
[15] = test system: Corynebacterium diphtheriae ATCC 11913; assay: MIC, Corynebacterium diphtheriae; assay type: cell-based
[16] = test system: Clostridium difficile 630; assay: MIC, Clostridium difficile 630; assay type: cell-based
[17] = test system: Clostridium difficile R20291; assay: MIC, Clostridium difficile R20291; assay type: cell-based
MRSA ATCC 49476 = assay: MIC, MRSA ATCC 49476; assay type: cell-based, methicillin-resistant Staphylococcus aureus; conditions: MRSA ATCC 49476
MRSA ATCC 33592 = assay: MIC, MRSA ATCC 33592; assay type: cell-based, methicillin-resistant Staphylococcus aureus; conditions: MRSA ATCC 33592
[18] = test system: S. saprophyticus (ATCC 15305); assay: MIC, S. saprophyticus; assay type: cell-based
VRSA (SJC1200) = assay: MIC, VRSA; assay type: cell-based, vancomycin-resistant Staphylococcus aureus; conditions: VRSA (SJC1200)
[19] = test system: Mycobacterium tuberculosis H37Ra; assay: MIC, Mycobacterium tuberculosis; assay type: cell-based
MRSA SCCmec VT = assay: MIC, MRSA SCCmec VT; assay type: cell-based, methicillin-resistant Staphylococcus aureus
[20] = test system: Bacillus subtilis BCRC 10255; assay: MIC, Bacillus subtilis; assay type: cell-based
[21] = test system: Listeria monocytogenes ATCC 19113; assay: MIC, Listeria monocytogenes; assay type: cell-based
[22] = Staphylococcus aureus, read-out: MIC
[23] = S. epidermidis (ATCC 35984), Table 3
[24] = Clostridioides difficile, read-out: MIC

O=C(Nc1ccc(Cl)c(C(F)(F)F)c1)Nc1ccc(Cl)c(C(F)(F)F)c1 [SC78]
MIC [1, 22]: 0.25 µg/mL (≈ 0.599 µM) | MIC90 (Clinical isolated MRSAs; Staphylococcus aureus, read-out: MIC90): 0.25 µg/mL (≈ 0.599 µM) | survival of MSSA- or MRSA-infected worms [2]: no significant difference was observed in the survival | resistance after consecutive exposure (S. aureus NCTC 8325 [3]): no resistance was observed | MIC ([4]; Staphylococcus epidermidis, ATCC12228, read-out: MIC): 0.25 µg/mL (≈ 0.599 µM) | MIC ([5]; ATCC35667, read-out: MIC): 0.25 µg/mL (≈ 0.599 µM) | MIC ([6]; ATCC19615, read-out: MIC): 0.25 µg/mL (≈ 0.599 µM) | IC50 (HEK-293; Homo sapiens, HEK293, read-out: IC50): 1.13 µg/mL (≈ 2.71 µM) | Selectivity ratio (HEK-293; IC50 (HEK-293)/MIC against S. aureus): 4.52 | MIC ([7]; read-out: MIC): 0.25 µg/mL (≈ 0.599 µM) | MIC (S. aureus ATCC 12598; Staphylococcus aureus, ATCC12598, read-out: MIC): 0.25 µg/mL (≈ 0.599 µM) | MIC (S. hominis (ATCC 27844); Staphylococcus hominis, ATCC27844, read-out: MIC): 0.25 µg/mL (≈ 0.599 µM) | MIC ([8]; ATCC19434, read-out: MIC): 0.5 µg/mL (≈ 1.2 µM) | MIC ([9]; read-out: MIC): 1 µg/mL (≈ 2.4 µM) | IC50 (HT-29; Homo sapiens, read-out: IC50): 4.51 µg/mL (≈ 10.8 µM) | Selectivity ratio (HT-29; IC50 (HT-29)/MIC against S. aureus): 18.04 | MIC (S. aureus NCTC 8325 [10]; S. aureus (NCTC 8325), Table 3): 0.25 µg/mL (≈ 0.599 µM) | MIC (S. aureus NCTC 8325 [10]; S. aureus NCTC 8325, Table 2): 0.25 µg/mL (≈ 0.599 µM) | MIC (S. aureus NCTC 8325 [10]; Staphylococcus aureus, NCTC8325, S. aureus NCTC 8325, read-out: MIC): 0.25 µg/mL (≈ 0.599 µM) | survival of worms fed with OP50 (toxicity) (C. elegans): significantly decreased | MIC ([11]; Staphylococcus haemolyticus, ATCC29970, read-out: MIC): 0.5 µg/mL (≈ 1.2 µM) | MIC [12, 23]: 0.25 µg/mL (≈ 0.599 µM) | MIC ([12]; Staphylococcus epidermidis, ATCC35984, S. epidermidis ATCC 35984, read-out: MIC): 0.25 µg/mL (≈ 0.599 µM) | MIC ([13]; ATCC11778, read-out: MIC): 0.25 µg/mL (≈ 0.599 µM) | IC50 (K-562; Homo sapiens, K562, read-out: IC50): 4.73 µg/mL (≈ 11.3 µM) | Selectivity ratio (K-562; IC50 (K-562)/MIC against S. aureus): 18.92 | MIC ([14]; ATCC19433, read-out: MIC): 0.25 µg/mL (≈ 0.599 µM) | MIC (VR-E. faecium; Enterococcus faecium, read-out: MIC): 0.25 µg/mL (≈ 0.599 µM) | MIC ([15]; ATCC11913, read-out: MIC): 0.25 µg/mL (≈ 0.599 µM) | MIC [16, 24]: 0.5 µg/mL (≈ 1.2 µM) | MIC [17, 24]: 0.25 µg/mL (≈ 0.599 µM) | MIC (MRSA ATCC 49476; [22]): 25 µg/mL (≈ 59.9 µM) | MIC (MRSA ATCC 33592; [22]): 0.25 µg/mL (≈ 0.599 µM) | MIC ([18]; Staphylococcus saprophyticus, ATCC15305, read-out: MIC): 0.25 µg/mL (≈ 0.599 µM) | MIC (VRSA (SJC1200); [22]): 0.25 µg/mL (≈ 0.599 µM) | MIC ([19]; read-out: MIC): 1 µg/mL (≈ 2.4 µM) | MIC (MRSA SCCmec VT; Staphylococcus aureus, MRSA SCCmec VT, read-out: MIC): 0.25 µg/mL (≈ 0.599 µM) | MIC ([20]; BCRC10255, read-out: MIC): 0.25 µg/mL (≈ 0.599 µM) | MIC ([21]; ATCC19113, read-out: MIC): 0.0625 µg/mL (≈ 0.15 µM)

O=C(Nc1ccc(Cl)c(C(F)(F)F)c1)C(CCCl)C(=O)Nc1ccc(Cl)c(C(F)(F)F)c1 [SC5005]
MIC [1]: 0.5 µg/mL (≈ 0.958 µM) | MIC90 (Clinical isolated MRSAs): 0.5 mg/L and 0.5^b mg/L | survival of MSSA- or MRSA-infected worms [2]: significant increase in the mean survival | resistance after consecutive exposure (S. aureus NCTC 8325 [3]): no resistance was observed | MIC [4]: 0.5 µg/mL (≈ 0.958 µM) | MIC [5]: 0.5 µg/mL (≈ 0.958 µM) | MIC [6]: 0.5 µg/mL (≈ 0.958 µM) | IC50 (HEK-293): 16.79 µg/mL (≈ 32.2 µM) | MIC [7]: 0.5 µg/mL (≈ 0.958 µM) | MIC (S. aureus ATCC 12598): 0.5 µg/mL (≈ 0.958 µM) | MIC (S. hominis (ATCC 27844)): 0.25 µg/mL (≈ 0.479 µM) | MIC [8]: 1 µg/mL (≈ 1.92 µM) | MIC [9]: 1 µg/mL (≈ 1.92 µM) | IC50 (HT-29): 14.56 µg/mL (≈ 27.9 µM) | MIC (S. aureus NCTC 8325 [10]; MSSA NCTC 8325, Table 6): 0.5 µg/mL (≈ 0.958 µM) | MIC (S. aureus NCTC 8325 [10]; S. aureus (NCTC 8325), Table 3): 0.5 µg/mL (≈ 0.958 µM) | MIC (S. aureus NCTC 8325 [10]; S. aureus NCTC 8325): 0.5 µg/mL (≈ 0.958 µM) | MIC (S. aureus NCTC 8325 [10]; S. aureus NCTC 8325, Table 2): 0.5 µg/mL (≈ 0.958 µM) | survival of worms fed with OP50 (toxicity) (C. elegans): didn't affect the survival | MIC [11]: 1 µg/mL (≈ 1.92 µM) | MIC [12, 23]: 0.5 µg/mL (≈ 0.958 µM) | MIC ([12]; S. epidermidis ATCC 35984): 0.5 µg/mL (≈ 0.958 µM) | MIC [13]: 0.5 µg/mL (≈ 0.958 µM) | IC50 (K-562): 20.23 µg/mL (≈ 38.8 µM) | MIC [14]: 0.5 µg/mL (≈ 0.958 µM) | MIC (VR-E. faecium): 0.5 µg/mL (≈ 0.958 µM) | MIC [15]: 0.5 µg/mL (≈ 0.958 µM) | MIC [16]: 0.5 µg/mL (≈ 0.958 µM) | MIC [17]: 0.5 µg/mL (≈ 0.958 µM) | MIC (MRSA ATCC 49476): 0.5 µg/mL (≈ 0.958 µM) | MIC (MRSA ATCC 33592): 0.5 µg/mL (≈ 0.958 µM) | MIC (MRSA ATCC 33592; Table 6): 0.5 µg/mL (≈ 0.958 µM) | MIC [18]: 0.5 µg/mL (≈ 0.958 µM) | MIC (VRSA (SJC1200)): 0.5 µg/mL (≈ 0.958 µM) | MIC [19]: 16 µg/mL (≈ 30.7 µM) | MIC (MRSA SCCmec VT; MRSA SCCmec VT): 0.5 µg/mL (≈ 0.958 µM) | MIC (MRSA SCCmec VT; SCCmec VT, Table 6): 0.5 µg/mL (≈ 0.958 µM) | MIC [20]: 0.5 µg/mL (≈ 0.958 µM) | MIC [21]: 0.125 µg/mL (≈ 0.24 µM)
